IC50 data for 5 molecules are collected here from patent US9266878B2, “Phosphatidylinositol 3-kinase inhibitors” (Gilead Calistoga LLC, priority 2012, dated 2016).

Common to all, as to assay: Enzymatic activity of PI3K isoforms, TR-FRET assay (PIP3 formation)
Common to all, as to type: biochemical
On the technique in general: Time-resolved FRET reads energy transfer from a long-lived donor to a nearby acceptor.

One assay concerns the target PI3Kα (Homo sapiens (Human), UniProt P42336). As to conditions: bound given in uM. The gist of the method: (§1)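 After 30 min at 25° C, reactions were quenched with 10 mM EDTA plus 10 nM labeled-PIP3 and 35 nM Europium-GRP-1, and TR-FRET was read (Ex 340, Em 615/665 nm). Enzymes were purified recombinant heterodimers; product PIP3 competes off the labeled tracer. Values given as IC50, nM.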

The target of another assay is PI3Kδ (Homo sapiens (Human), UniProt O00329). As to conditions: bound given in nM. The gist of the method: as §1
The target of another assay is PI3Kγ (Homo sapiens (Human), UniProt P48736). The gist of the method:
(§2)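 IC50 (nM) reflects inhibition of PIP3 formation by purified recombinant heterodimeric PI3K, measured as loss of TR-FRET signal. The read-out comes from competition between enzyme-made PIP3 and labelled PIP3 for binding to the GRP-1 pleckstrin homology domain.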

For the next assay, the target named is PI3Kβ (Homo sapiens (Human), UniProt P42338). The conditions noted are these: bound given in uM. The gist of the method:
as §2

Each structure is given as a SMILES string.

PI3Kα, sequence (P42336 whole entry): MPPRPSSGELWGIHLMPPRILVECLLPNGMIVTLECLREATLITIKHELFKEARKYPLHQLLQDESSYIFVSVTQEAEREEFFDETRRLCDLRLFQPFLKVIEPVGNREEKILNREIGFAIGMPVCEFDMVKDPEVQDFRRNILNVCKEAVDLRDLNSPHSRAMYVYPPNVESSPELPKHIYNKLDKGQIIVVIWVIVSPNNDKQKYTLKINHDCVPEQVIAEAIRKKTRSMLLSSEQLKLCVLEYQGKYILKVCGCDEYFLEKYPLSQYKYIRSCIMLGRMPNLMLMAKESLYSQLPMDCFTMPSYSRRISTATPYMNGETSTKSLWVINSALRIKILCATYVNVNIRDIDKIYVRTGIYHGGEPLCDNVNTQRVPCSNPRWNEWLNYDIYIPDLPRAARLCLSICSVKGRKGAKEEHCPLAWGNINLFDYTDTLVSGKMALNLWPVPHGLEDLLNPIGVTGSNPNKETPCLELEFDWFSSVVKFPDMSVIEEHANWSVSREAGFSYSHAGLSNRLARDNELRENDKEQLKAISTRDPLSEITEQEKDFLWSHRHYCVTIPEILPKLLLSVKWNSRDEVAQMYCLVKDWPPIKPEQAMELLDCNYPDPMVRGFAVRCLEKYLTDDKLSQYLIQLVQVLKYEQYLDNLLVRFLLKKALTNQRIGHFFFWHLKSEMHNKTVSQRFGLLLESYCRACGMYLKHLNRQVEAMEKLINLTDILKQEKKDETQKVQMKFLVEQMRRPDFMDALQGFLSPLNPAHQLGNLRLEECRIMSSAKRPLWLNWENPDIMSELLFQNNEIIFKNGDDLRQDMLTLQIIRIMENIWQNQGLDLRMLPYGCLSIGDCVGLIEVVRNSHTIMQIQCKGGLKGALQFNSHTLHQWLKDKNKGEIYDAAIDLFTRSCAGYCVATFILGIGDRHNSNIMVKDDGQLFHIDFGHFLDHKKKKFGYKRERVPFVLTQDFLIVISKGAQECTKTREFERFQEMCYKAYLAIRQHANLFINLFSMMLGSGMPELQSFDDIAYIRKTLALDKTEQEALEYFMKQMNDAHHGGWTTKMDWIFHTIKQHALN
PI3Kα, sequence (P27986 whole entry partner): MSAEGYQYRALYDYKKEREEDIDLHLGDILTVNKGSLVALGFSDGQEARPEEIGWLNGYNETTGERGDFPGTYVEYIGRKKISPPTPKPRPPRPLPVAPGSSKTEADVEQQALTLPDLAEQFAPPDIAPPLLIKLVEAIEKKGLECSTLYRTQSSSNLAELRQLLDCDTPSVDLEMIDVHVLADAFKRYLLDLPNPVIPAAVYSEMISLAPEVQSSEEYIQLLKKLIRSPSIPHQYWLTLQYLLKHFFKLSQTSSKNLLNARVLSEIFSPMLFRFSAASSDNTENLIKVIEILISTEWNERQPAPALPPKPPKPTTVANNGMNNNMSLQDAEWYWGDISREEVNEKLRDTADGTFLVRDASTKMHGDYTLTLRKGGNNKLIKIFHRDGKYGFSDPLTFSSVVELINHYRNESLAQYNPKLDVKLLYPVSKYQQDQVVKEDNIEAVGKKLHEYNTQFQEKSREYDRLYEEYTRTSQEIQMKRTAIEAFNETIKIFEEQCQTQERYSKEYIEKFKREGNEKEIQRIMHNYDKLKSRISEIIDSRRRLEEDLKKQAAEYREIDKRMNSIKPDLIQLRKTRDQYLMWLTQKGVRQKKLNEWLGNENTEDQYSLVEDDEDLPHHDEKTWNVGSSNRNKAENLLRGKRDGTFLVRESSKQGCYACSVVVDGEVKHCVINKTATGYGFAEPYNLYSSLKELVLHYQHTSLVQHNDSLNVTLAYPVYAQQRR
PI3Kγ, sequence (P48736 whole entry, the tested form may be a part): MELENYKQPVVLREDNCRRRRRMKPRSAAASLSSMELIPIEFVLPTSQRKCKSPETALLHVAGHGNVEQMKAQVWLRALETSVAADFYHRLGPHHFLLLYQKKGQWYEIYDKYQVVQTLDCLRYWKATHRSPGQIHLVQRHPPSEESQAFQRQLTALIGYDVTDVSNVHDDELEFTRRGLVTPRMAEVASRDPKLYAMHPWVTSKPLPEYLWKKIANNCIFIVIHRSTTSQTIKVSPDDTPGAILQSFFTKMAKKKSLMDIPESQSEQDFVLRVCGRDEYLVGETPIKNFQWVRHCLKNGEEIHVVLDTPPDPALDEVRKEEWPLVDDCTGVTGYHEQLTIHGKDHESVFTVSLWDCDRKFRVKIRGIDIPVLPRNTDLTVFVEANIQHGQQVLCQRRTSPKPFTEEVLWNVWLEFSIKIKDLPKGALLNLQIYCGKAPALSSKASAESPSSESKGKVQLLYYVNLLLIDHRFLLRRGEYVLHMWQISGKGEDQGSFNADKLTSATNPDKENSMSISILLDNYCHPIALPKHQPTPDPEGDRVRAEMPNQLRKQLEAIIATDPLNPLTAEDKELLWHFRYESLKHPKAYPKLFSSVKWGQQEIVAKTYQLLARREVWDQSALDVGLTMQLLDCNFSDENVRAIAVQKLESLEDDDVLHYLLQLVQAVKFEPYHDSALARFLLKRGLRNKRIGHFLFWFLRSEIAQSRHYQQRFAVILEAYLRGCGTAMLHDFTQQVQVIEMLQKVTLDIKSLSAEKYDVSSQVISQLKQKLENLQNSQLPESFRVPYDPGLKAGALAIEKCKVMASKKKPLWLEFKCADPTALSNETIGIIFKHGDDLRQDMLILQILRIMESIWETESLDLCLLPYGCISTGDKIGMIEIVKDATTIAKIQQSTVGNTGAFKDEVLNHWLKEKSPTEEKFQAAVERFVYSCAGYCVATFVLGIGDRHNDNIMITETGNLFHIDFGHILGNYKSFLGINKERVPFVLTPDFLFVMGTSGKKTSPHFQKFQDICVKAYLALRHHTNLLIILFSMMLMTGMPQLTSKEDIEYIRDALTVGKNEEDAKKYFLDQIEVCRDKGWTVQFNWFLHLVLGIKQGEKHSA
PI3Kγ, sequence (Q8WYR1 whole entry partner, the tested form may be a part): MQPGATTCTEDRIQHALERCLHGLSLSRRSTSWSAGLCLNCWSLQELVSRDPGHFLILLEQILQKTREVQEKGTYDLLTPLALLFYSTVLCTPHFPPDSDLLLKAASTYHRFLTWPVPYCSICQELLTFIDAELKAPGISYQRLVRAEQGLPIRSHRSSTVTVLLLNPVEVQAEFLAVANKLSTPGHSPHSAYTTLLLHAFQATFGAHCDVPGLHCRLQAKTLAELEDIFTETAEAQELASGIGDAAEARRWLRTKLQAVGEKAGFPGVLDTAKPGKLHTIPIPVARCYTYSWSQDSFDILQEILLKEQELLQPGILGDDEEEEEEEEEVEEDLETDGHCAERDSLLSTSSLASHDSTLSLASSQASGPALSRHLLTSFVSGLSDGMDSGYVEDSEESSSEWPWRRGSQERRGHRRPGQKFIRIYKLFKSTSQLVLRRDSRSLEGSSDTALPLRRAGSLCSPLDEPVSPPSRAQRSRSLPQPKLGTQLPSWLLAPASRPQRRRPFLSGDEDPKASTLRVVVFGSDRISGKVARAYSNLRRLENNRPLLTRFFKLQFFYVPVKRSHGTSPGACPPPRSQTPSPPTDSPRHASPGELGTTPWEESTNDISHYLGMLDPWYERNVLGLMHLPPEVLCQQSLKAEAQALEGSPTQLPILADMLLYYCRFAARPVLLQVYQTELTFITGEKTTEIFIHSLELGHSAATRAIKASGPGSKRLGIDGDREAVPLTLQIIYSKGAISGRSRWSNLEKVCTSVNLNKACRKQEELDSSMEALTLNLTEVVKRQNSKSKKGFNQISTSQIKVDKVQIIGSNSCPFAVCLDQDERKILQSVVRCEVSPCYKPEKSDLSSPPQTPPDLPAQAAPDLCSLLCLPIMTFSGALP
PI3Kβ, sequence (P42338 whole entry): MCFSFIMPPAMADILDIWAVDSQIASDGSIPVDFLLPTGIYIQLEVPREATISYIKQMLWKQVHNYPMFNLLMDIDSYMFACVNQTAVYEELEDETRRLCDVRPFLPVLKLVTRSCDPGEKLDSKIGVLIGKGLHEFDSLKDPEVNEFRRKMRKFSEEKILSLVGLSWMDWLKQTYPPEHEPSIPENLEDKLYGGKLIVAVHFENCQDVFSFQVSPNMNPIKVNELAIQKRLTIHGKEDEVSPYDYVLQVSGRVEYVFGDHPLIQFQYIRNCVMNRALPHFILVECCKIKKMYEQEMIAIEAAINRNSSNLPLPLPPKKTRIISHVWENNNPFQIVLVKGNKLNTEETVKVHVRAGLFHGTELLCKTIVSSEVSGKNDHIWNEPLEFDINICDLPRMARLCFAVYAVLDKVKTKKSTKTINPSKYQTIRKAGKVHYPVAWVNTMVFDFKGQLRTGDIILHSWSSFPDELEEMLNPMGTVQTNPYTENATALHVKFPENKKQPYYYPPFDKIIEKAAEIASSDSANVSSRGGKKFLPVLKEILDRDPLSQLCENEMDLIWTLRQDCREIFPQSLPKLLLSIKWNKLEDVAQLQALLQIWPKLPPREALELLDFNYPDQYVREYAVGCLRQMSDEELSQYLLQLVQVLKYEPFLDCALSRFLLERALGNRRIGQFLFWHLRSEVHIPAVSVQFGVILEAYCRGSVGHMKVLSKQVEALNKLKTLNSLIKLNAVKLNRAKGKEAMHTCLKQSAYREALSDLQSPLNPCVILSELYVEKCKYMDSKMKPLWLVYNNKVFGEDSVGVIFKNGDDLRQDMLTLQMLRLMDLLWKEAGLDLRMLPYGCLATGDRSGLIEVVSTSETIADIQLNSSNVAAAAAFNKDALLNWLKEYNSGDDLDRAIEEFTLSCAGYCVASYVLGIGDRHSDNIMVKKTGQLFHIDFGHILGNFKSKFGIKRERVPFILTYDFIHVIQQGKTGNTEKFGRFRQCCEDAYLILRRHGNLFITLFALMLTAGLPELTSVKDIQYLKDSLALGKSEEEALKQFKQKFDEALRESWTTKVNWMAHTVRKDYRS
PI3Kβ, sequence (P27986 whole entry partner): as the sequence (P27986 whole entry partner) above

One may read the IC50 as the concentration at which inhibition is half-maximal. High values mean weaker potency, low ones greater potency. As for `C[C@H](Nc1ncnc(N)c1C#Cc1ccc(F)cn1)c1nc2c(Cl)cccc2c(=O)n1-c1ccccc1` [Compound 5a, (S)-2-(1-(6-amino-5-((5-fluoropyridin-2-yl)ethynyl)pyrimidin-4-ylamino)ethyl)-8-chloro-3-phenylquinazolin-4(3H)-one], the IC50 is over 1 µM against PI3Kα, under 100 nM at PI3Kδ, over 1 µM on PI3Kγ (bound given in uM) and over 1 µM against PI3Kβ.

For `CC[C@H](Nc1ncnc(N)c1C#Cc1cnccn1)c1nc2cccc(C(F)F)c2c(=O)n1-c1cc(F)cc(F)c1` [Compound 74a, (S)-2-(1-((6-amino-5-(pyrazin-2-ylethynyl)pyrimidin-4-yl)amino)propyl)-5-(difluoromethyl)-3-(3,5-difluorophenyl)quinazolin-4(3H)-one], the IC50 is over 1 µM on PI3Kα, under 100 nM against PI3Kδ, over 1 µM against PI3Kγ (bound given in uM) and over 1 µM at PI3Kβ.

With `C[C@H](Nc1ncnc(N)c1C#Cc1cnccn1)c1nc2cccc(S(C)(=O)=O)c2c(=O)n1-c1ccccc1` [Compound 113a, (S)-2-(1-((6-amino-5-(pyrazin-2-ylethynyl)pyrimidin-4-yl)amino)ethyl)-5-(methylsulfonyl)-3-phenylquinazolin-4(3H)-one], the IC50 is over 1 µM against PI3Kα, under 100 nM against PI3Kδ, over 1 µM against PI3Kγ (bound given in uM) and over 1 µM on PI3Kβ.

In the case of `C[C@H](Nc1ncnc(N)c1C#Cc1ccccn1)c1nc2cccc(Cl)c2c(=O)n1-c1cc(F)cc(F)c1` [Compound 45a, (S)-2-(1-(6-amino-5-(pyridin-2-ylethynyl)pyrimidin-4-ylamino)ethyl)-5-chloro-3-(3,5-difluorophenyl)quinazolin-4(3H)-one], the IC50 was over 1 µM against PI3Kα, under 100 nM against PI3Kδ, over 1 µM on PI3Kγ (bound given in uM) and over 1 µM against PI3Kβ.

For `C[C@H](Nc1ncnc(N)c1C#Cc1ccc(C(F)(F)F)cn1)c1nc2cccc(Cl)c2c(=O)n1-c1ccccc1` [Compound 132a, (S)-2-(1-((6-amino-5-((5-(trifluoromethyl)pyridin-2-yl)ethynyl)pyrimidin-4-yl)amino)ethyl)-5-chloro-3-phenylquinazolin-4(3H)-one], the IC50 against PI3Kα is over 1 µM; against PI3Kδ, under 100 nM; on PI3Kγ (bound given in nM), under 0.1 µM; against PI3Kβ it was over 1 µM.
